Values of other authors, collected in article PMC9516332 (Frontiers in Oncology, 2022).
Read-outs that look alike come from different tables or passages of the source.

Key:
Details in all cases: cited from earlier work
[1] = target: panel of 255 wild-type kinases (Homo sapiens, UniProt Q9NYA1)
[2] = target: panel of 255 wild-type kinases (Homo sapiens, UniProt Q9Y5S2)
[3] = target: panel of 255 wild-type kinases (Homo sapiens, UniProt Q15119)
[4] = target: panel of 255 wild-type kinases (Homo sapiens, UniProt Q9BYP7)
[5] = target: T1, panel of 255 wild-type kinases (Homo sapiens, UniProt Q96PN8)
T1 sequence (Q96PN8 1-268): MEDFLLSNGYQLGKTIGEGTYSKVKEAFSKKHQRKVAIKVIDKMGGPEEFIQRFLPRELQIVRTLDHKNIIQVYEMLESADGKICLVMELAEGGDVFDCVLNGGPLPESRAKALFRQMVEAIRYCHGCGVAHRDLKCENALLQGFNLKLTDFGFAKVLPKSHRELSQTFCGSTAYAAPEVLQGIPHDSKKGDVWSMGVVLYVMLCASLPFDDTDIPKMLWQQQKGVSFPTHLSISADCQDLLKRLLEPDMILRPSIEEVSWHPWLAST

[6] = target: panel of 255 wild-type kinases (Homo sapiens, UniProt Q13164)
[7] = target: T2, panel of 255 wild-type kinases (Homo sapiens, UniProt Q9UHD2)
T2 sequence (Q9UHD2 1-729): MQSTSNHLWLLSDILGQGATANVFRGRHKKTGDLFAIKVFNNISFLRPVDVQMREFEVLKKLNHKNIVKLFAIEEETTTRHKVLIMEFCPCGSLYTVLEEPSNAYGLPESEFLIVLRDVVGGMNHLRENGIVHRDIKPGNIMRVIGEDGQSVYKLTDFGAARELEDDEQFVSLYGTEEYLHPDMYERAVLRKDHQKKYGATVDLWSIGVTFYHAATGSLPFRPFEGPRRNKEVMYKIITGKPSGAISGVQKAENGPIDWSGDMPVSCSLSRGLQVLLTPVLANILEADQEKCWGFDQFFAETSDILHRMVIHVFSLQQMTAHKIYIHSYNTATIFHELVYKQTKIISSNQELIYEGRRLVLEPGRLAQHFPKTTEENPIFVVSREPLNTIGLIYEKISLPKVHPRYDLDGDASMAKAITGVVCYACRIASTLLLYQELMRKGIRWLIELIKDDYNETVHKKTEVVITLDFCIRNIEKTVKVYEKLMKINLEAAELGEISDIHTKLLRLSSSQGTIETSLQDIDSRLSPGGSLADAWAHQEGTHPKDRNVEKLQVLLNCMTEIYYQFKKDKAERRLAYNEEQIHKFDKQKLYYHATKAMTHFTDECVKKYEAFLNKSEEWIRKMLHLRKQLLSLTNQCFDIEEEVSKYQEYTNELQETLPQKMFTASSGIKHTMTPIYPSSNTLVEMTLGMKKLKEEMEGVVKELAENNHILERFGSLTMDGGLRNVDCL

[8] = target: T3, panel of 255 wild-type kinases (Homo sapiens, UniProt Q13470)
T3 sequence (Q13470 1-666): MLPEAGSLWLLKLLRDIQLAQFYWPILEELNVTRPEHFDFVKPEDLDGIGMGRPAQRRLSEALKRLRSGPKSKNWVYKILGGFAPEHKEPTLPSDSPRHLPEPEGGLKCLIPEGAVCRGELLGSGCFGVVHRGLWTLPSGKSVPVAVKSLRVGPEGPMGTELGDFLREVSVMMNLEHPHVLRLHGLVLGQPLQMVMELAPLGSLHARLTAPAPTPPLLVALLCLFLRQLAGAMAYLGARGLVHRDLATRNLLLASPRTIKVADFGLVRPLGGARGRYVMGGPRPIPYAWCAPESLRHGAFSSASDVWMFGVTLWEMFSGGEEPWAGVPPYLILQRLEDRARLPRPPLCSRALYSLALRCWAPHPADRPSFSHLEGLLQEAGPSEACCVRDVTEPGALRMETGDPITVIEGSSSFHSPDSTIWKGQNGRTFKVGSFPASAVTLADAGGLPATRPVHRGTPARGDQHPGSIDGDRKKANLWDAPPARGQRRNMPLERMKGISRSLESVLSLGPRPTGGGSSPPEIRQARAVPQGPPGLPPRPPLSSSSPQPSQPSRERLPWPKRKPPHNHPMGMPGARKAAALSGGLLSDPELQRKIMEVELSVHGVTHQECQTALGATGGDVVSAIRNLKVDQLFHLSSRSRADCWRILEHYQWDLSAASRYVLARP

[9] = target: panel of 255 wild-type kinases (Homo sapiens, UniProt P06213)
[10] = target: panel of 255 wild-type kinases (Homo sapiens, UniProt P29376)
[11] = kinase SPHK1, 1 µmol/L single concentration, ref DOI: 10.1158/1535-7163.MCT-18-0877
[12] = MRCKβ, 1 µmol/L single concentration, ref DOI: 10.1158/1535-7163.MCT-18-0877
[13] = kinase PDHK2, 1 µmol/L single concentration, ref DOI: 10.1158/1535-7163.MCT-18-0877
[14] = kinase WNK3, 1 µmol/L single concentration, ref DOI: 10.1158/1535-7163.MCT-18-0877
[15] = kinase TSSK3, 1 µmol/L single concentration, ref DOI: 10.1158/1535-7163.MCT-18-0877
[16] = kinase Erk5, 1 µmol/L single concentration, ref DOI: 10.1158/1535-7163.MCT-18-0877
[17] = kinase TBK1, 1 µmol/L single concentration, ref DOI: 10.1158/1535-7163.MCT-18-0877
[18] = kinase TNK1, 1 µmol/L single concentration, ref DOI: 10.1158/1535-7163.MCT-18-0877
[19] = kinase INSR, 1 µmol/L single concentration, ref DOI: 10.1158/1535-7163.MCT-18-0877
[20] = kinase LTK, 1 µmol/L single concentration, ref DOI: 10.1158/1535-7163.MCT-18-0877
[21] = kinase SPHK1, 1 µmol/L single concentration, ref DOI: 10.1371/journal.pone.0092146
[22] = MRCKβ, 1 µmol/L single concentration, ref DOI: 10.1371/journal.pone.0092146
[23] = kinase PDHK2, 1 µmol/L single concentration, ref DOI: 10.1371/journal.pone.0092146
[24] = kinase WNK3, 1 µmol/L single concentration, ref DOI: 10.1371/journal.pone.0092146
[25] = kinase TSSK3, 1 µmol/L single concentration, ref DOI: 10.1371/journal.pone.0092146
[26] = kinase Erk5, 1 µmol/L single concentration, ref DOI: 10.1371/journal.pone.0092146
[27] = kinase TBK1, 1 µmol/L single concentration, ref DOI: 10.1371/journal.pone.0092146
[28] = kinase TNK1, 1 µmol/L single concentration, ref DOI: 10.1371/journal.pone.0092146
[29] = kinase INSR, 1 µmol/L single concentration, ref DOI: 10.1371/journal.pone.0092146
[30] = kinase LTK, 1 µmol/L single concentration, ref DOI: 10.1371/journal.pone.0092146

Row | SMILES | %-inhibition at 1 µmol/L, SPHK1 [1, 11] | %-inhibition, MRCKβ [2, 12] | %-inhibition at 1 µmol/L, PDHK2 [3, 13] | %-inhibition at 1 µmol/L, WNK3 [4, 14] | %-inhibition at 1 µmol/L, TSSK3 [5, 15] | %-inhibition at 1 µmol/L, Erk5 [6, 16] | %-inhibition at 1 µmol/L, TBK1 [7, 17] | %-inhibition at 1 µmol/L, TNK1 [8, 18] | %-inhibition at 1 µmol/L, INSR [9, 19] | %-inhibition at 1 µmol/L, LTK [10, 20] | further results
1 | CC#CC(=O)N1CCC[C@H]1c1nc(-c2ccc(C(=O)Nc3ccccn3)cc2)c2c(N)nccn12 [acalabrutinib] | -3% | -16% | 0.164% | -0.259% | -8% | -2.12% | 2.14% | -1.8% | -4.67% | 10% | 
2 | CCc1cc2c(cc1N1CCC(N3CCOCC3)CC1)C(C)(C)c1[nH]c3cc(C#N)ccc3c1C2=O [alectinib] | -10% | -5% | 0.393% | 0.437% | -3.58% | -1.24% | 6% | 11% | 83% | 99% | 
3 | COc1cc(N2CCC(N3CCN(C)CC3)CC2)ccc1Nc1ncc(Cl)c(Nc2ccccc2P(C)(C)=O)n1 [brigatinib] |  |  |  |  |  |  |  |  |  |  | %-inhibition at 1 µmol/L, SPHK1 [1]: -4%; %-inhibition, MRCKβ [2]: 38%; %-inhibition at 1 µmol/L, PDHK2 [3]: 2%; %-inhibition at 1 µmol/L, WNK3 [4]: 1%; %-inhibition at 1 µmol/L, TSSK3 [5]: 3%; %-inhibition at 1 µmol/L, Erk5 [6]: 96%; %-inhibition at 1 µmol/L, TBK1 [7]: 23%; %-inhibition at 1 µmol/L, TNK1 [8]: 101%; %-inhibition at 1 µmol/L, INSR [9]: 101%; %-inhibition at 1 µmol/L, LTK [10]: 100%
4 | Cc1cc(Nc2ncc(Cl)c(Nc3ccccc3S(=O)(=O)C(C)C)n2)c(OC(C)C)cc1C1CCNCC1 [ceritinib] | -13% | -0.678% | -1.41% | 0.598% | 8% | 94% | 4% | 101% | 102% | 100% | 
5 | O=C(c1ccc(F)c(F)c1Nc1ccc(I)cc1F)N1CC(O)([C@@H]2CCCCN2)C1 [cobimetinib] | -5.63% | 0.0776% | -0.379% | 1.84% | -5% | 1.71% | 4% | 4.29% | 2.48% | 2.85% | 
6 | C[C@@H](Oc1cc(-c2cnn(C3CCNCC3)c2)cnc1N)c1c(Cl)ccc(F)c1Cl [crizotinib] |  |  |  |  |  |  |  |  |  |  | %-inhibition at 1 µmol/L, SPHK1 [1, 21]: -14%; %-inhibition, MRCKβ [2, 22]: -2%; %-inhibition at 1 µmol/L, PDHK2 [3, 23]: -3.51%; %-inhibition at 1 µmol/L, WNK3 [4, 24]: -8%; %-inhibition at 1 µmol/L, TSSK3 [5, 25]: -0.601%; %-inhibition at 1 µmol/L, Erk5 [6, 26]: 45%; %-inhibition at 1 µmol/L, TBK1 [7, 27]: 1.42%; %-inhibition at 1 µmol/L, TNK1 [8, 28]: 41%; %-inhibition at 1 µmol/L, INSR [9, 29]: 84%; %-inhibition at 1 µmol/L, LTK [10, 30]: 102%
7 | CC(C)(C)c1nc(-c2cccc(NS(=O)(=O)c3c(F)cccc3F)c2F)c(-c2ccnc(N)n2)s1 [dabrafenib] |  |  |  |  |  |  |  |  |  |  | %-inhibition at 1 µmol/L, SPHK1 [1, 21]: -18%; %-inhibition, MRCKβ [2, 22]: -2.85%; %-inhibition at 1 µmol/L, PDHK2 [3, 23]: 0.108%; %-inhibition at 1 µmol/L, WNK3 [4, 24]: 1.34%; %-inhibition at 1 µmol/L, TSSK3 [5, 25]: -8%; %-inhibition at 1 µmol/L, Erk5 [6, 26]: 0.144%; %-inhibition at 1 µmol/L, TBK1 [7, 27]: -1.15%; %-inhibition at 1 µmol/L, TNK1 [8, 28]: 100%; %-inhibition at 1 µmol/L, INSR [9, 29]: 7.51%; %-inhibition at 1 µmol/L, LTK [10, 30]: 2.67%
8 | C=CC(=O)N1CCC[C@@H](n2nc(-c3ccc(Oc4ccccc4)cc3)c3c(N)ncnc32)C1 [ibrutinib] | -3.38% | -7.55% | -1.08% | 7% | -4% | 4% | 0.825% | 6% | 9.51% | 2.76% | 
9 | CO[C@@H]1[C@H](N(C)C(=O)c2ccccc2)C[C@H]2O[C@]1(C)n1c3ccccc3c3c4c(c5c6ccccc6n2c5c31)C(=O)NC4 [midostaurin] | -2.46% | 18% | -1.18% | 5.27% | -2.3% | -1.27% | 98% | 101% | 35% | 90% | 
10 | C=CC(=O)Nc1cc(Nc2nccc(-c3cn(C)c4ccccc34)n2)c(OC)cc1N(C)CCN(C)C [osimertinib] | 9% | 12% | -2% | 1.5% | -0.941% | 10% | 9% | 100% | 86% | 97% | 
